The values that follow come from PMC8839882, “A New Series of Aryloxyacetic Acids Endowed with Multi-Target Activity towards Peroxisome Proliferator-Activated Receptors (PPARs), Fatty Acid Amide Hydrolase (FAAH), and Acetylcholinesterase (AChE)” (Molecules, 2022).

One assay has as its target T1, FAAH Human recombinant (Homo sapiens, UniProt O00519).
T1 construct: purchased Cayman Chemical
T1 sequence (O00519 1-579): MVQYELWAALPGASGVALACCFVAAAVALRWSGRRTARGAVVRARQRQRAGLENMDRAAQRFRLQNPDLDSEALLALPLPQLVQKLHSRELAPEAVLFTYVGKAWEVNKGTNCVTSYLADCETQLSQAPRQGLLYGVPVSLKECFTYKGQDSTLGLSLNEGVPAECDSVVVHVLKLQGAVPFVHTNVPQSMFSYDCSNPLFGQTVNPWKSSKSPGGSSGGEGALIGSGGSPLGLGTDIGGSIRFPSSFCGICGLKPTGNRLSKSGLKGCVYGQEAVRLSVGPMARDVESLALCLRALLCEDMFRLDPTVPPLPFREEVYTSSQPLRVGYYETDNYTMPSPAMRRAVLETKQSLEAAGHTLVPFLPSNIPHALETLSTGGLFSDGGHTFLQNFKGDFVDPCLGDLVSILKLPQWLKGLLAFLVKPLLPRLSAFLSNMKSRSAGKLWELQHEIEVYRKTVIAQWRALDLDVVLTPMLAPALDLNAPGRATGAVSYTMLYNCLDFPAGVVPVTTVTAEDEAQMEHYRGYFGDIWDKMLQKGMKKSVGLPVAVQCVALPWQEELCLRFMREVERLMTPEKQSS
The arrangement: method as in PMID 32987725. The conditions noted are these: lead compounds 1 and 2, not among the eight compounds tested here; cited from earlier work.

In a further assay the target is T2, human PPARα (hPPARα) (Homo sapiens, UniProt Q07869).
T2 construct: expressed in transfected cells; host or cells: HepG2 (human hepatoblastoma)
T2 sequence (Q07869 239-466 limits assumed): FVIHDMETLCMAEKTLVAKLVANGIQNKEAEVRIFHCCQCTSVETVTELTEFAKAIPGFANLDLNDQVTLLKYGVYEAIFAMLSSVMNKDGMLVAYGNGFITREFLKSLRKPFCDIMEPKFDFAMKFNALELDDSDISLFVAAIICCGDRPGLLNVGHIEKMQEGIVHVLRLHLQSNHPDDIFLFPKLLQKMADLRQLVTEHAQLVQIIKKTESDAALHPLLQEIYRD
As to the kind of experiment: GAL4-PPARα transactivation assay in transiently transfected HepG2 cells. Format: cell-based. The conditions noted are these: HepG2. An excerpt:
For this purpose, GAL4-PPAR chimeric receptors were expressed in transiently transfected HepG2 cells according to a previously reported procedure. […] Maximum obtained fold induction with the reference agonist was defined as 100%.
The expression vectors bearing the chimeric receptor containing the yeast Gal4-DNA binding domain fused to the human PPARα- or PPARγ-LBD, and the reporter plasmid for these Gal4 chimeric receptors (pGal5TKpGL3), comprising five repeats of the Gal4 response elements upstream of a minimal thymidine kinase promoter adjacent to the coding sequence for luciferase, were described in a previous work.
A culture of the human hepatoblastoma cell line HepG2 (Interlab Cell Line Collection, Genoa, Italy) was conducted in minimum essential medium (MEM) containing 10% heat-inactivated fetal bovine serum, 100 U of penicillin G mL^−1, and 100 μg of streptomycin sulfate mL^−1 at 37 °C in a humidified atmosphere of 5% CO2. For transactivation assays, cells were seeded in a 24-well plate at a concentration of 10^5 cells per well, and were transfected after 24 h with CAPHOS, a calcium phosphate method, according to the manufacturer’s guidelines. Cell transfection was performed using expression plasmids encoding the fusion protein Gal4−PPARα-LBD or Gal4−PPARγ-LBD (30 ng), pGal5TKpGL3 (100 ng), and pCMVβgal (250 ng). Following transfection, cells were incubated for 4 h, after which they underwent treatment with the indicated ligands in triplicate for 20 h. Cell extracts were subsequently analyzed for luciferase activity via luminometry (VICTOR^3 V multilabel plate reader, PerkinElmer). Ortho-nitrophenyl-β-D-galactopyranoside was used to measure β-Galactosidase activity, following a previously described method. All transfection experiments were performed at least twice.

Another assay deals with T3, Aβ40 (Homo sapiens, UniProt P05067).
T3 construct: purchased EZBiolab
The arrangement: method as in PMID 26032855. As to conditions: cited from earlier work.

Marks after values point to notes of the source that are not given here.

T3 sequence (P05067 672-711): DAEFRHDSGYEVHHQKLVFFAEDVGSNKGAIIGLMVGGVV

Consider `O=C(O)C(Cc1ccccc1)Oc1ccc(-c2ccccc2)cc1` (stereo not shown) [Compound 1, reference compound], for which, at FAAH Human recombinant, the IC50 (in general, the concentration that inhibits the measured activity by half) was more than 50 µM. Also, the maximum response (Emax) (as a rule, the size of the effect at its maximum, as opposed to the concentration needed) on human PPARα (hPPARα) is 116 ± 4%.

As for `O=C(O)C(Cc1ccccc1)Oc1ccc(C=Cc2ccccc2)cc1` (stereo not shown) [Compound 2], the IC50 at FAAH Human recombinant is 24 ± 2.5 µM.

Turning to `COc1cc2c(cc1OC)C(=O)C(CC1CCN(Cc3ccccc3)CC1)C2` (stereo not shown) [Donepezil, donepezil], at Aβ40, the “Aβ40 Aggr. percent of inhibition at 10 μM” value is reported as 14 ± 7 ^c %.
